The results in this text go back to the Kinase Knowledgebase extract (Sharma et al. 2016).

Each structure is given as a SMILES string.

Chain of PIK3CA (human) (P42336 whole entry, looked up): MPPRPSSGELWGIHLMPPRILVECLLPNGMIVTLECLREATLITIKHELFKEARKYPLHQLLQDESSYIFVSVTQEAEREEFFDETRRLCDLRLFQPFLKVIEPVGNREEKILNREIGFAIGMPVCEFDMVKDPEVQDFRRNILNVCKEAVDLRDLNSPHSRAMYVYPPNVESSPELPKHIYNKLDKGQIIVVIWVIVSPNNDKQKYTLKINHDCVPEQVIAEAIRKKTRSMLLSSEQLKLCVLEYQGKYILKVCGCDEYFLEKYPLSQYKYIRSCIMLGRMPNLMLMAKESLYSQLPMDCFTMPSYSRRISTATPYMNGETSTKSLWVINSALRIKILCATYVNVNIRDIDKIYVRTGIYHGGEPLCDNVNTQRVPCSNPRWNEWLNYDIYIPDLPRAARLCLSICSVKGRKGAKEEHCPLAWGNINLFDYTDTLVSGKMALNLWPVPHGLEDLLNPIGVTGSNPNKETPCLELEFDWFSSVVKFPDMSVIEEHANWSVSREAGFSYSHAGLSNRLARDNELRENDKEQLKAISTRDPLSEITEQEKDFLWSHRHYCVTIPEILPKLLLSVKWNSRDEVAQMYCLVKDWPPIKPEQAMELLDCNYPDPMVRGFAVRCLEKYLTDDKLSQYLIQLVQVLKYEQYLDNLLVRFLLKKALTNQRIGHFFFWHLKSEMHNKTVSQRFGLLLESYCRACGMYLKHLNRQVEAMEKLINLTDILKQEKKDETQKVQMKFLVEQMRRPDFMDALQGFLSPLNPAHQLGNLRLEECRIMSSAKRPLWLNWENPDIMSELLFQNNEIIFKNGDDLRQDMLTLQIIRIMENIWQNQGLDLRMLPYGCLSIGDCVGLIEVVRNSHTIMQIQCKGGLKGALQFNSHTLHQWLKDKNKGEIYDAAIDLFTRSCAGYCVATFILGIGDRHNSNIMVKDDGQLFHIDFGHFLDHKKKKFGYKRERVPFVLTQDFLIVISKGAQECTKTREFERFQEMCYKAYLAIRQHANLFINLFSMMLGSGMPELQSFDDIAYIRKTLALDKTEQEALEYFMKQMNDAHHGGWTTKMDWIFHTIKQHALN

The test concerns the target PIK3CA (human) (UniProt P42336). Description: Assessment of PIK3CA Kinase Activity.
As a reminder, the IC50 is the concentration needed to halve the response being measured. A low value points to greater potency in that assay. As for `Cc1ccncc1-c1ccc2c(N3CCOCC3)nc(-c3ccc(NC(=O)Nc4ccc(C(=O)N5CCC(N(C)C)CC5)cc4)cc3)nc2c1`, the IC50 was under 50 nM. To `CN(C)C(=O)c1ccc(NC(=O)Nc2ccc(-c3nc(N4CCOCC4)c4ccc(-c5cccnc5F)cc4n3)cc2)cn1` belongs 50 to 200 nM.

For `CN(C)C(=O)c1ccc(NC(=O)Nc2ccc(-c3nc(N4CCOCC4)c4ccc(-c5cncnc5)cc4n3)cc2)cc1F`, the IC50 is under 50 nM. With `CN(C)C(=O)c1ccc(NC(=O)Nc2ccc(-c3nc(N4CCOCC4)c4ncc(-c5cccnc5F)cc4n3)c(F)c2)cc1`, the half-maximal inhibitory concentration (IC50) was under 50 nM. To `CN(C)C(=O)c1ccc(NC(=O)Nc2ccc(-c3nc(N4CCOCC4)c4ccc(-c5cnn(C)c5)cc4n3)cc2)cc1` belongs under 50 nM; to `CN(C)C(=O)c1ccc(NC(=O)Nc2ccc(-c3nc(N4CCOCC4)c4cc(F)c(-c5cncnc5)cc4n3)cc2)c(F)c1`, 50 to 200 nM; to `CN(C)C(=O)c1ccc(NC(=O)Nc2ccc(-c3nc(N4CCOCC4)c4ccc(-c5cccc(N(C)C)c5)cc4n3)cc2)cc1`, under 50 nM. In turn, `CN(C)CCNC(=O)c1ccc2c(N3CCOCC3)nc(-c3ccc(NC(=O)Nc4ccc(C(=O)N(C)C)cc4)cc3)nc2c1` came in with an IC50 of 50 to 200 nM. To `CN(C)C(=O)c1ccc(NC(=O)Nc2ccc(-c3nc(N4CCOCC4)c4ccc(-c5cccc(S(C)(=O)=O)c5)cc4n3)cc2)cn1` belongs 50 to 200 nM; to `CN(C)C(=O)c1ccc(NC(=O)Nc2ccc(-c3nc(N4CCOCC4)c4ncc(-c5cnn(C)c5)cc4n3)c(F)c2)cc1`, under 50 nM. `CN(C)C(=O)c1ccc(NC(=O)Nc2ccc(-c3nc(N4CCOCC4)c4ccc(-c5ccnnc5)cc4n3)cc2)cc1` returned a 50% inhibitory concentration (IC50) of 50 to 200 nM. `Cc1nn(C)c(C)c1-c1ccc2c(N3CCOCC3)nc(-c3ccc(NC(=O)Nc4ccc(C(=O)N(C)C)cc4)cc3)nc2c1` displayed an IC50 of under 50 nM. Take `Cc1ccc(-c2ccc3c(N4CCOCC4)nc(-c4ccc(NC(=O)Nc5ccc(C(=O)N(C)C)c(F)c5)cc4)nc3c2)o1`: the IC50 was 50 to 200 nM. To `Cc1noc(C)c1-c1ccc2c(N3CCOCC3)nc(-c3ccc(NC(=O)Nc4ccc(C(=O)N(C)C)cc4)c(F)c3)nc2c1` belongs under 50 nM. Consider `CN(C)C(=O)c1ccc(NC(=O)Nc2ccc(-c3nc(N4CCOCC4)c4ccc(-c5cccnc5F)cc4n3)cc2)cc1`, for which the 50% inhibitory concentration (IC50) was in the range of 50 to 200 nM. Compound `CC(=O)Nc1ccc(NC(=O)Nc2ccc(-c3nc(N4CCOCC4)c4ccc(-c5cncnc5)cc4n3)cc2)cc1` yielded an IC50 of under 50 nM. Compound `CN(C)C(=O)c1ccc(NC(=O)Nc2ccc(-c3nc(N4CCOCC4)c4ccc(-c5cccnc5)cc4n3)cc2F)cc1` showed an IC50 of under 50 nM. To `CN(C)CCNC(=O)c1ccc(-c2ccc3c(N4CCOCC4)nc(-c4ccc(NC(=O)Nc5ccc(C(=O)N(C)C)cc5)cc4)nc3c2)o1` belongs 50 to 200 nM; to `COc1ncccc1-c1ccc2c(N3CCOCC3)nc(-c3ccc(NC(=O)Nc4ccc(C(=O)N(C)C)cc4)cc3F)nc2c1`, 50 to 200 nM.

With `CN1CCN(C(=O)c2ccc(NC(=O)Nc3ccc(-c4nc(N5CCOCC5)c5cc(F)c(-c6cccnc6)cc5n4)cc3F)cc2)CC1`, the IC50 is under 50 nM. With `Cc1noc(C)c1-c1cnc2c(N3CCOCC3)nc(-c3ccc(NC(=O)Nc4ccc(C(=O)N(C)C)cc4)c(F)c3)nc2c1`, the half-maximal inhibitory concentration (IC50) was under 50 nM. Compound `Cc1ccc(-c2ccc3c(N4CCOCC4)nc(-c4ccc(NC(=O)Nc5ccc(C(=O)N(C)C)cc5)cc4F)nc3c2)o1` yielded an IC50 of 50 to 200 nM.

Take `CC(O)c1ccc(-c2ccc3c(N4CCOCC4)nc(-c4ccc(NC(=O)Nc5ccc(C(=O)N(C)C)cc5)cc4F)nc3c2)o1` (configuration not stated): the IC50 lay in the range of 50 to 200 nM. For the compound `COc1cccc(-c2ccc3c(N4CCOCC4)nc(-c4ccc(NC(=O)Nc5ccc(C(=O)N(C)C)cc5)cc4)nc3c2)c1`, the concentration for half-maximal inhibition (IC50) was 50 to 200 nM. `CN(C)C(=O)c1ccc(NC(=O)Nc2ccc(-c3nc(N4CCOCC4)c4ccc(-c5cccc(F)c5)cc4n3)cc2)cc1`: the 50% inhibitory concentration (IC50) is 50 to 200 nM.

`CC1CN(c2nc(-c3ccc(NC(=O)Nc4ccc(C(=O)N(C)C)cc4)cc3)nc3cc(-c4cncnc4)ccc23)CCO1` (configuration not stated) yielded an IC50 of under 50 nM. To `CC(O)c1ccc(-c2cnc3c(N4CCOCC4)nc(-c4ccc(NC(=O)Nc5ccc(C(=O)N(C)C)cc5)cc4)nc3c2)o1` (configuration not stated) belongs under 50 nM; to `COc1ncc(-c2ccc3c(N4CCOCC4)nc(-c4ccc(NC(=O)Nc5ccc(C(=O)N(C)C)c(F)c5)cc4)nc3c2)cn1`, under 50 nM. To `CN(C)C(=O)c1ccc(NC(=O)Nc2ccc(-c3nc(N4CCOCC4)c4ccc(-c5ccc(N)nc5)cc4n3)cc2)cc1` belongs under 50 nM; to `Cc1ccncc1-c1cnc2c(N3CCOCC3)nc(-c3ccc(NC(=O)Nc4ccc(C(=O)N(C)C)cc4)c(F)c3)nc2c1`, 50 to 200 nM; to `CN(C)C(=O)c1ccc(NC(=O)Nc2ccc(-c3nc(N4CCOCC4)c4cc(F)c(-c5cnn(C)c5)cc4n3)cc2F)cc1`, 50 to 200 nM. To `CN(C)[C@H]1CCN(C(=O)c2ccc(NC(=O)Nc3ccc(-c4nc(N5CCOCC5)c5ncc(-c6cncnc6)cc5n4)cc3)cc2)C1` belongs under 50 nM; to `Cc1ccncc1-c1ccc2c(N3CCOCC3)nc(-c3ccc(NC(=O)Nc4ccc(C(=O)N(C)C)cc4)cc3)nc2c1`, under 50 nM. Consider `CN1CCN(C(=O)c2ccc(-c3ccc4c(N5CCOCC5)nc(-c5ccc(NC(=O)Nc6ccc(C(=O)N(C)C)cc6)cc5)nc4c3)o2)CC1`, for which the IC50 was under 50 nM. To `COc1ccncc1-c1ccc2c(N3CCOCC3)nc(-c3ccc(NC(=O)Nc4ccc(C(=O)N(C)C)cc4)cc3)nc2c1` belongs under 50 nM; to `CN(C)C(=O)c1ccc(NC(=O)Nc2ccc(-c3nc(N4CCOCC4)c4ccc(-c5ccc(CO)o5)cc4n3)c(F)c2)cc1`, under 50 nM. In turn, `CC(O)c1ccc(-c2ccc3c(N4CCOCC4)nc(-c4ccc(NC(=O)Nc5ccc(C(=O)N(C)C)cc5)cc4)nc3c2)o1` (configuration not stated) showed a 50% inhibitory concentration (IC50) of under 50 nM. To `CN(C)C(=O)c1ccc(NC(=O)Nc2ccc(-c3nc(N4CCOCC4)c4ncc(-c5cnn(C)c5)cc4n3)cn2)cc1` belongs under 50 nM. The compound `COc1ncc(-c2cnc3c(N4CCOCC4)nc(-c4ccc(NC(=O)Nc5ccc(C(=O)N(C)C)cc5F)cc4)nc3c2)cn1` came in with a half-maximal inhibitory concentration (IC50) of under 50 nM. `CN(C)C(=O)c1ccc(NC(=O)Nc2ccc(-c3nc(N4CCOCC4)c4ncc(-c5cncnc5)cc4n3)cc2)cc1` returned an IC50 of under 50 nM. With `CN(C)C(=O)c1ccc(NC(=O)Nc2ccc(-c3nc(N4CCOCC4)c4ccc(-c5ccc(C#N)o5)cc4n3)c(F)c2)cc1`, the IC50 was under 50 nM.

In turn, `Cc1ccc(-c2ccc3c(N4CCOCC4)nc(-c4ccc(NC(=O)Nc5ccc(C(=O)NCCN(C)C)cc5)cc4)nc3c2)o1` gave a half-maximal inhibitory concentration (IC50) of 50 to 200 nM.

Compound `CN(C)C(=O)c1ccc(NC(=O)Nc2cc(F)c(-c3nc(N4CCOCC4)c4ccc(-c5cncnc5)cc4n3)cc2F)cc1` had an IC50 of 50 to 200 nM. To `CN(C)C(=O)c1ccc(NC(=O)Nc2ccc(-c3nc(N4CCOCC4)c4ccc(-c5cnc(N(C)C)nc5)cc4n3)c(F)c2)cc1` belongs under 50 nM; to `CN(C)C(=O)c1ccc(NC(=O)Nc2ccc(-c3nc(N4CCOCC4)c4cc(F)c(-c5cncnc5)cc4n3)cc2F)cc1`, under 50 nM; to `CN(C)C(=O)c1ccc(NC(=O)Nc2ccc(-c3nc(N4CCOCC4)c4ccc(-c5ccccn5)cc4n3)cc2F)cc1`, 50 to 200 nM. In the case of `CN(C)C(=O)c1ccc(NC(=O)Nc2ccc(-c3nc(N4CCOCC4)c4ccc(-c5cnc6ccccc6c5)cc4n3)cc2)cc1`, the IC50 was under 50 nM.
